# Laboratory results published in patent US5591714A, “Derivatives of A82846” (priority 1994, dated 1997).
# What was measured:
# [1] = tested on: Enterococcus faecalis 2041; test: MIC, standard agar-dilution assay; type: cell-based
# Procedure: (§1) The formula I compounds have in vitro and in vivo activity against Gram-positive pathogenic bacteria. The MIC's were determined using a standard agar-dilution assays.
# ^c Formerly Streptococcus faecalis 2041
# [2] = tested on: vancomycin-resistant (Vanco^r) E. faecium and E. faecalis; test: Susceptibility of vancomycin-resistant enterococci, agar-dilution MIC; type: cell-based; settings: for Geometric Mean MIC, Vanco^r Strains: n = 25 strains, end points read after 24-hour incubation
# Procedure: (§2) End points were read after 24-hour incubation. The ratio was calculated by dividing the mean MIC of the compound against the vancomycin-resistant strains by the mean MIC of the compound against the vancomycin-susceptible strains.
# Streptococcus pneumoniae = test: In vivo activity, experimentally infected mice (ED50); settings: Streptococcus pneumoniae infection; doses administered subcutaneously to mice 1 and 4 hours postinfection
# Staphylococcus aureus = test: as above; settings: Staphylococcus aureus infection; doses administered subcutaneously to mice 1 and 4 hours postinfection
# [3] = tested on: Staphylococcus aureus S13E; type: cell-based
# Procedure: as §1
# [4] = tested on: Streptococcus pneumoniae Park 1; type: cell-based
# Procedure: as §1
# [5] = tested on: six vancomycin-susceptible strains of staphylococci and enterococci; test: Effect of human serum on the MIC, serial dilution assay; type: cell-based; settings: for MIC determined in absence of added serum: absence (-) of human serum; for ratio of the MIC in the presence of added serum to the MIC in the absence of added serum: indication of the degree of serum binding; for MIC determined in presence of human serum: broth supplemented with human serum to 40%
# Text: Another important property of the formula I compounds is the low binding of the compounds to serum proteins when compared with other glycopeptide antibiotics. […] The ratio of the MIC measured in the presence of added serum to the MIC measured in the absence of added serum ("ratio") is an indication of the degree of serum binding. […] A ratio that is greater than one, for example about ten, indicates the compound has a high degree of serum binding.
# Streptococcus pyogenes = test: In vivo activity, experimentally infected mice (ED50); settings: Streptococcus pyogenes infection; doses administered subcutaneously to mice 1 and 4 hours postinfection
# [6] = tested on: vancomycin-susceptible (Vanco^s) E. faecium and E. faecalis; test: Susceptibility of vancomycin-susceptible enterococci, agar-dilution MIC; type: cell-based; settings: n = 34 strains; end points read after 24-hour incubation
# Procedure: as §2
# Enterococcus faecium X66 = test: MIC, standard agar-dilution assay; type: cell-based
# Procedure: as §1
# ^b Formerly Streptococcus faecium X66
# Escherichia coli TEM = test: MIC, standard agar-dilution assay; type: cell-based
# Procedure: as §1
# Escherichia coli N10 = test: MIC, standard agar-dilution assay; type: cell-based
# Procedure: as §1
# [7] = tested on: Klebsiella pneumoniae X68; test: MIC, standard agar-dilution assay; type: cell-based
# Procedure: as §1
# [8] = tested on: Staphylococcus aureus X400; test: MIC, standard agar-dilution assay; type: cell-based
# Procedure: as §1
# Escherichia coli EC14 = test: MIC, standard agar-dilution assay; type: cell-based
# Procedure: as §1
# [9] = tested on: Klebsiella pneumoniae X26; test: MIC, standard agar-dilution assay; type: cell-based
# Procedure: as §1
# [10] = tested on: Haemophilus influenzae C.L.; test: MIC, standard agar-dilution assay; type: cell-based
# Procedure: as §1
# [11] = tested on: Streptococcus pyogenes C203; test: MIC, standard agar-dilution assay; type: cell-based
# Procedure: as §1
# [12] = tested on: Klebsiella pneumoniae KAE; test: MIC, standard agar-dilution assay; type: cell-based
# Procedure: as §1
# [13] = tested on: Staphylococcus aureus NRRL X1.1; test: MIC, standard agar-dilution assay; type: cell-based
# Procedure: as §1
# [14] = tested on: Staphylococcus epidermidis EPI270; test: MIC, standard agar-dilution assay; type: cell-based
# Procedure: as §1
# [15] = tested on: Staphylococcus aureus V41; test: MIC, standard agar-dilution assay; type: cell-based
# Procedure: as §1
# [16] = tested on: Staphylococcus epidermidis 222; test: MIC, standard agar-dilution assay; type: cell-based
# Procedure: as §1
# [17] = tested on: Haemophilus influenzae 76; test: MIC, standard agar-dilution assay; type: cell-based
# Procedure: as §1
# human serum protein = settings: cited from earlier work
Compound,MIC [1],Ratio (mean MIC vancomycin-resistant strains / mean MIC vancomycin-susceptible strains) [2],"Geometric Mean MIC, Vanco^r Strains [2] [µg/mL]",ED50 (Streptococcus pneumoniae) [mg/kg/2],ED50 (Staphylococcus aureus) [mg/kg/2],MIC [3],MIC [4],MIC determined in absence of added serum [5],ratio of the MIC in the presence of added serum to the MIC in the absence of added serum [5],MIC determined in presence of human serum [5],ED50 (Streptococcus pyogenes) [mg/kg/2],"Geometric Mean MIC, Vanco^s Strains [6] [µg/mL]",MIC (Enterococcus faecium X66),MIC (Escherichia coli TEM) [µg/mL],MIC (Escherichia coli N10) [µg/mL],MIC [7] [µg/mL],MIC [8],MIC (Escherichia coli EC14) [µg/mL],MIC [9] [µg/mL],MIC [10] [µg/mL],further results
CCCCCCCCN[C@@]1(C)C[C@H](O[C@H]2[C@H](Oc3c4cc5cc3Oc3ccc(cc3Cl)[C@@H](O[C@H]3C[C@](C)(N)[C@@H](O)[C@H](C)O3)[C@@H]3NC(=O)[C@H](NC(=O)[C@@H]5NC(=O)[C@H](CC(N)=O)NC(=O)[C@H](NC(=O)[C@@H](CC(C)C)NC)[C@H](O)c5ccc(c(Cl)c5)O4)c4ccc(O)c(c4)-c4c(O)cc(O)cc4[C@@H](C(=O)O)NC3=O)O[C@H](CO)[C@@H](O)[C@@H]2O)O[C@@H](C)[C@@H]1O [Compound 38],.25 µg/mL,2.9,2.1,0.062,0.43,.5 µg/mL,.25 µg/mL,0.75,0.58,0.43,0.11,0.73,.25 µg/mL,> 128,> 128,> 128,1 µg/mL,> 128,> 128,> 128,MIC [11]: .06 µg/mL; MIC [12]: > 128 µg/mL; MIC [13]: .5 µg/mL; MIC [14]: 1 µg/mL; MIC [15]: 1 µg/mL; MIC [16]: .5 µg/mL; MIC [17]: > 128 µg/mL
CNC(CC(C)C)C(=O)NC1C(=O)NC(CC(N)=O)C(=O)NC2C(=O)NC3C(=O)NC(C(=O)NC(C(=O)O)c4cc(O)cc(O)c4-c4cc3ccc4O)C(OC3CC(C)(N)C(O)C(C)O3)c3ccc(c(Cl)c3)Oc3cc2cc(c3OC2OC(CO)C(O)C(O)C2OC2CC(C)(NCc3ccc(Br)cc3)C(O)C(C)O2)Oc2ccc(cc2Cl)C1O (centres unmarked) [Compound 58],.25 µg/mL,4.6,3.1,0.08,0.38,1 µg/mL,.125 µg/mL,0.43,2.3,1.0,0.05,0.67,.25 µg/mL,> 128,> 128,> 128,1 µg/mL,> 128,> 128,> 128,MIC [11]: .125 µg/mL; MIC [12]: > 128 µg/mL; MIC [13]: .5 µg/mL; MIC [14]: 2 µg/mL; MIC [15]: .5 µg/mL; MIC [16]: .5 µg/mL; MIC [17]: > 128 µg/mL
CN[C@H](CC(C)C)C(=O)N[C@H]1C(=O)N[C@@H](CC(N)=O)C(=O)N[C@H]2C(=O)N[C@H]3C(=O)N[C@H](C(=O)N[C@H](C(=O)O)c4cc(O)cc(O)c4-c4cc3ccc4O)[C@H](O)c3ccc(c(Cl)c3)Oc3cc2cc(c3O[C@@H]2O[C@H](CO)[C@@H](O)[C@H](O)[C@H]2O[C@H]2C[C@](C)(N)[C@H](O)[C@H](C)O2)Oc2ccc(cc2Cl)[C@H]1O [vancomycin],,,,,,,,,,,,,,,,,,,,,level of human serum protein binding (human serum protein): 55%
Teicoplanin [reference compound],,,,,,,,0.25,12.6,3.8,,,,,,,,,,,level of human serum protein binding (human serum protein): about 90%
CCCCCCCCCCN[C@@]1(C)C[C@H](O[C@H]2[C@H](Oc3c4cc5cc3Oc3ccc(cc3Cl)[C@@H](O[C@H]3C[C@](C)(N)[C@@H](O)[C@H](C)O3)[C@@H]3NC(=O)[C@H](NC(=O)[C@@H]5NC(=O)[C@H](CC(N)=O)NC(=O)[C@H](NC(=O)[C@@H](CC(C)C)NC)[C@H](O)c5ccc(c(Cl)c5)O4)c4ccc(O)c(c4)-c4c(O)cc(O)cc4[C@@H](C(=O)O)NC3=O)O[C@H](CO)[C@@H](O)[C@@H]2O)O[C@@H](C)[C@@H]1O [Compound 42],.5 µg/mL,2.7,2.5,0.09,0.67,1 µg/mL,.25 µg/mL,0.87,0.76,0.66,0.09,0.92,.06 µg/mL,> 128,> 128,> 128,.5 µg/mL,> 128,> 128,> 128,MIC [11]: .25 µg/mL; MIC [12]: > 128 µg/mL; MIC [13]: .5 µg/mL; MIC [14]: 1 µg/mL; MIC [15]: .5 µg/mL; MIC [16]: .5 µg/mL; MIC [17]: > 128 µg/mL
